Test results published in patent US9150578B2, “5,8-dihydro-6H-pyrazolo[3,4-h]quinazolines as IGF-1R/IR inhibitors” (Boehringer Ingelheim International GmbH, priority 2012, dated 2015).

How the values were obtained:
[1] = target: cytoplasmic kinase domain of human IGF-1R (IGF-1R-GST) (Homo sapiens (Human), UniProt P08069); experiment: Insulin-like growth factor-1 receptor (IGF-1R) kinase assay (DELFIA); type: biochemical; conditions: inhibition of IGF-1R-kinase activity, read-out: IGF1R IC50
Protocol: Insulin-Like Growth Factor-1 Receptor (IGF-1R)-Kinase Assay
The kinase activity is measured by DELFIA® assay (dissociation-enhanced lanthanide fluorescence immunoassay, Perkin Elmer). […] Enzyme activity is measured in the presence of substances and a control substance. Poly-glutamate-tyrosine peptide (pEY, Sigma Aldrich) and biotinylated pEY (bio-pEY) are used as reaction substrates.
After 40 min at RT the reactions are stopped with 50 μL of stop solution (250 mM EDTA, 20 mM HEPES pH 7.4). 90 μL from each reaction are transferred onto streptavidin-coated 96-well plates. After 120 min incubation at RT the plates are washed three times with 200 μL phosphate-buffered saline (PBS) per well. The plates are incubated for 60 min with 100 μL of europium-coupled antibody against phospho-tyrosine (diluted 1/2000 in Perkin Elmer DELFIA assay buffer) per well. The plates are washed three times with 200 μL per well of DELFIA washing buffer. 100 μL DELFIA Enhancement Solution (Perkin Elmer) is added to each well, and the plates are incubated for 10 min. The fluorescence signal is measured with a Wallac Victor TRF Reader. IC50 values for the inhibition of the IGF-1R-kinase activity are calculated using the programmes Fifty (Version 2) and GraphPad (Version 3.0).

[2] = system: TC-71 (Ewing's sarcoma) cells; experiment: Cell proliferation assay, TC-71 (Alamar Blue); type: cell-based; conditions: TC-71 cells, 72 h, read-out: TC71 EC50 range
Protocol: Cell Proliferation Assays
Published scientific data has described that interference with the Insulin-like Growth Factor-1 Receptor (IGF-1R) signaling pathway reduces the proliferation of TC-71 cells. Therefore TC-71 cells served as a positive control cell line for monitoring the activity of compounds against IGF-1R-mediated cell proliferation.
2000 TC-71 cells or 1000 HCT 116 cells were seeded per well in 180 μL IMDM+10% foetal calf serum (FCS)+penicillin/streptomycin into 96-well microtitre plates. The plates were placed in a cell culture incubator (37° C. in a humidified atmosphere of 95% […]/5 CO2) overnight. The following day, serial dilutions of compounds, prepared in duplicates, were transferred onto the cell layers (controls without compound). The cells were cultivated for a further 72 h in the cell culture incubator. 20 μL of Alamar Blue™ (Serotec Ltd, Düsseldorf, Germany) was added to each well and the plates incubated for 7 h in the cell culture incubator.

human IGF-1R = human IGF-1R (Homo sapiens (Human), UniProt P08069); experiment: Cellular IGF-1R-phosphorylation assay (Fibro-hIGF-1R cells); type: cell-based; conditions: IGF-1 stimulated (20 ng/mL, 30 min), 120 min compound incubation, read-out: pIGF-1R EC50 range
Protocol: Cellular IGF-1R-Phosphorylation Assay
The activity of substances against the phosphorylation of IGF-1R in activated cells is measured as follows: mouse fibroblast cells (transfected with human IGF-1R, Fibro-hIGF-1R) are cultivated in standard medium (DMEM, 10% foetal calf serum (FCS, Gibco), 1×MEM Non-Essential Amino Acids (NEAA, Gibco), 7.5% sodium hydrogen carbonate (Gibco) and 0.3 mg/mL Puromycin (Sigma)) in a humid incubator at 37° C. with 5 CO2/95% air.
10000 Fibro-hIGF-1R cells per well in 200 μL of standard medium are seeded into 96-well plates and cultivated overnight. […] 10 μL of substance solution (diluted in serum-reduced medium) is added thereto, and the cells are incubated for a further 120 min in the incubator. The phosphorylation of IGF-1R is activated for 30 min by the addition of IGF-1 (20 ng/mL in serum-reduced medium). All further incubations are carried out at RT. The supernatant is suction filtered from the wells, and the cells are fixed in 100 μL per well of 4% paraformaldehyde (diluted in PBS). The supernatant in the well is suction filtered and the cells are permeabilised for 5 min in 300 μL per well of 0.1% TritonX-100 (diluted in PBS). […] The cells are washed for 5 min with 300 μL per well of PBS with 0.1% TritonX-100 and then incubated for 60 min with 100 μL per well of blocking buffer (PBS with 0.1% TritonX-100 and 5 Bovine Serum Albumin (BSA)). […] The next day the plates are washed for 5 min with 300 μL PBS/0.1% TritonX-100 at RT and then incubated for 60 min with 50 μL per well of the second antibody buffer (1/500 diluted Goat Anti-Rabbit Immunoglobulin-Horseradish Peroxidase (HRP) (Dako) in blocking buffer) at RT. The plates are washed first for 5 min with 300 μL PBS/0.1% TritonX-100 and then for a further 5 min with 300 μL PBS at RT. The plates are developed for 10 min with 100 μL per well of a peroxidase solution (1:1 mixture of TMB Peroxidase Substrate and Peroxidase Solution B from Kirkegaard & Perry Laboratories, Inc.). The reactions are stopped with 100 μL per well of stop solution (1 M phosphoric acid). The absorbance in each well is measured at 450 nm with a SpectraMax Absorbance Reader. EC50 values for inhibiting the phosphorylation of the IGF-1R in activated cells are calculated using the programmes Fifty (Version 2) and GraphPad (Version 3.0).

Sequence of cytoplasmic kinase domain of human IGF-1R (IGF-1R-GST) (P08069 964-1367 limits assumed): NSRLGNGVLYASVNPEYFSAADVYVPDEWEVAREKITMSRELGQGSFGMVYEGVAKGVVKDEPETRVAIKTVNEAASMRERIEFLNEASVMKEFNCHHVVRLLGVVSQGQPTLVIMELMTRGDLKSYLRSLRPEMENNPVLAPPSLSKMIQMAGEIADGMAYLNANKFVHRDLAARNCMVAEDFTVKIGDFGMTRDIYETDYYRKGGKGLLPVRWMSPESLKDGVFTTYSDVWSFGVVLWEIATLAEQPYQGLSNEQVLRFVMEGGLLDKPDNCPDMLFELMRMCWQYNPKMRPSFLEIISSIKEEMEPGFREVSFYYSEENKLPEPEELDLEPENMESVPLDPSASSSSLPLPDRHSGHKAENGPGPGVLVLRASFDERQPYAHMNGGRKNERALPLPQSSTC
Sequence of human IGF-1R (P08069 31-1367): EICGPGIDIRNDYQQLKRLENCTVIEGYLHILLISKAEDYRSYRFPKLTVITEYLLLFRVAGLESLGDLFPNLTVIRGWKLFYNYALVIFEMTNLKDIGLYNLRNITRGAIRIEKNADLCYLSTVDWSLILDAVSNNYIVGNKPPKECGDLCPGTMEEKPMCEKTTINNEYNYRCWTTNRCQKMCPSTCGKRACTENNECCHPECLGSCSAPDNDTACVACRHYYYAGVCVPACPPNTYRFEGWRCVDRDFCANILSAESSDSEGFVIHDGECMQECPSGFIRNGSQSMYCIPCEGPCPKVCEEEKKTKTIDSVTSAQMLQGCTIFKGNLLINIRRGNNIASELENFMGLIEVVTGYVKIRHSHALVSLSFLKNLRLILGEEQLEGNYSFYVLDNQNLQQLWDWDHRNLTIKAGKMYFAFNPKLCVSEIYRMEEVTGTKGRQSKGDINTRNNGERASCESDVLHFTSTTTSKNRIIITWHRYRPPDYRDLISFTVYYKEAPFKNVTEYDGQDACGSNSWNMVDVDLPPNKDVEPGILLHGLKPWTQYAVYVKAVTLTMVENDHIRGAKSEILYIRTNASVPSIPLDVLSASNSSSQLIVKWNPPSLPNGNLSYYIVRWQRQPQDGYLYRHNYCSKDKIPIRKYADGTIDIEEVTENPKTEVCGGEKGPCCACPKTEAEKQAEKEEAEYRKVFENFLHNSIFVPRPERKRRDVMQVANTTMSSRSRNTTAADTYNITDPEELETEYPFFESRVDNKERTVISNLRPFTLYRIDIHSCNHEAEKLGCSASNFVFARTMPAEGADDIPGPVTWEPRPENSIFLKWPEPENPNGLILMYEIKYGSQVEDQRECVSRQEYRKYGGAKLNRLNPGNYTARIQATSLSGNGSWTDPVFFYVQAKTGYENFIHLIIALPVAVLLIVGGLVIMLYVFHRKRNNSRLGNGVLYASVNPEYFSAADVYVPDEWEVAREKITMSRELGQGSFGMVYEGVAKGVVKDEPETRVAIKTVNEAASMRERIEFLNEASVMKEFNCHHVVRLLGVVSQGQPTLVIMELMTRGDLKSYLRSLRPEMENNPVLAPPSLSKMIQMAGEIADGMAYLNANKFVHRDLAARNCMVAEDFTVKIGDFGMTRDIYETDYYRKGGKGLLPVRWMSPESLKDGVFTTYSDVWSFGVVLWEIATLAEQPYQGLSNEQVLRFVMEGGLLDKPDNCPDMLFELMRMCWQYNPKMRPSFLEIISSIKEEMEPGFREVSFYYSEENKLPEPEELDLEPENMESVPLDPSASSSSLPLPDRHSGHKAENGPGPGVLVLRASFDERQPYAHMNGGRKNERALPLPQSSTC

| SMILES | IC50 [1] [nM] | EC50 [2] [nM] | EC50 (human IGF-1R) [nM] |
| --- | --- | --- | --- |
| CC(=O)N1CCC(n2cc(Nc3ncc4c(n3)-c3c(nn(C)c3Cc3cccc(-c5cnn(C)c5)c3)CC4)cn2)CC1 [I-013] | 0.39 | < 10 | 10 to 100 |
| CC(C)n1cc(-c2ccc(-c3c4c(nn3C)CCc3cnc(Nc5cnn(CCN(C)C)c5)nc3-4)cc2)cn1 [I-020] | 0.21 | < 10 | < 10 |
| CC(=O)N1CCC(n2cc(Nc3ncc4c(n3)-c3c(nn(C)c3-c3ccc(-c5cnn(C(C)C)c5)cc3)CC4)cn2)CC1 [I-022] | 0.17 | < 10 | 10 to 100 |
| CC(C)n1cc(-c2ccc(-c3c4c(nn3C)CCc3cnc(Nc5cnn(CCN6CCOCC6)c5)nc3-4)cc2)cn1 [I-023] | 0.42 | < 10 | < 10 |
| COCCn1cc(Nc2ncc3c(n2)-c2c(nn(C)c2-c2ccc(-c4cnn(C(C)C)c4)cc2)CC3)cn1 [I-027] | 0.28 | < 10 | < 10 |
| CC(=O)N1CCC(n2cc(Nc3ncc4c(n3)-c3c(nn(C)c3-c3ccc(-c5cnn(C)c5)cc3)CC4)cn2)CC1 [I-051] | 0.21 | < 10 | 10 to 100 |
| CCn1ccc(Nc2ncc3c(n2)-c2c(nn(C)c2-c2ccc(-c4cnn(C5CCNCC5)c4)cc2)CC3)n1 [I-063] | 0.16 | < 10 | 10 to 100 |
| CCn1ccc(Nc2ncc3c(n2)-c2c(nn(C)c2-c2ccc(-c4cnn(C)c4)cc2Cl)CC3)n1 [I-064] | 0.31 | < 10 | < 10 |
| CCn1ccc(Nc2ncc3c(n2)-c2c(nn(C)c2-c2ccc(-c4c(C)noc4C)cc2)CC3)n1 [I-066] | 15 | 100 to 200 | 100 to 600 |
| CCn1ccc(Nc2ncc3c(n2)-c2c(nn(C)c2-c2ccc(-c4cnn(CCN5CCC(N(C)C)CC5)c4)cc2)CC3)n1 [I-119] | 0.09 | < 10 | < 10 |
| COc1cc(C(=O)N2CCN(C)CC2)ccc1Nc1ncc2c(n1)-c1c(nn(C)c1-c1ccc(-c3cnn(C)c3)cc1)CC2 [I-129] | 0.16 | < 10 | < 10 |
| COc1cc(C(=O)NC(C)C)ccc1Nc1ncc2c(n1)-c1c(nn(C)c1-c1ccc(-c3cnn(C)c3)cc1)CC2 [I-132] | 0.26 | – | < 10 |
| CN(C)[C@H]1CCN(C(=O)Cn2ccc(Nc3ncc4c(n3)-c3c(nn(C)c3-c3ccc(-c5cnn(C)c5)cc3)CC4)n2)C1 [I-143] | 0.24 | < 10 | 10 to 100 |
| COc1cc(C(=O)N2CCOCC2)ccc1Nc1ncc2c(n1)-c1c(nn(C)c1-c1ccc(-c3cnn(C)c3)cc1)CC2 [I-156] | 0.22 | < 10 | < 10 |
| COc1cc(C(=O)NC2CCOCC2)ccc1Nc1ncc2c(n1)-c1c(nn(C)c1-c1ccc(-c3cnn(C)c3)cc1)CC2 [I-160] | 0.61 | < 10 | < 10 |
| COc1cc(C(=O)N[C@@H]2CCN(C)C[C@H]2OC)ccc1Nc1ncc2c(n1)-c1c(nn(C)c1-c1ccc(-c3cnn(C)c3)cc1)CC2 [I-163] | 0.23 | < 10 | < 10 |
| COc1cc(C(=O)NC2CN(C)C2)ccc1Nc1ncc2c(n1)-c1c(nn(C)c1-c1ccc(-c3cnn(C)c3)cc1)CC2 [I-164] | 0.19 | < 10 | 10 to 100 |
| CCN1CCN(c2ccc(Nc3ncc4c(n3)-c3c(nn(C)c3-c3ccc(-c5cnn(C)c5)cc3)CC4)c(OC)c2)CC1 [I-170] | 0.09 | < 10 | < 10 |
| COc1cc(N2CCN(C3CCOCC3)CC2)ccc1Nc1ncc2c(n1)-c1c(nn(C)c1-c1ccc(-c3cnn(C)c3)cc1)CC2 [I-171] | 0.08 | < 10 | < 10 |
| COc1cc(N2CCN(C(C)C)CC2)ccc1Nc1ncc2c(n1)-c1c(nn(C)c1-c1ccc(-c3cnn(C)c3)cc1)CC2 [I-172] | 0.05 | < 10 | < 10 |
| COCCN1CCC(n2cc(Nc3ncc4c(n3)-c3c(nn(C)c3-c3ccc(-c5cnn(C)c5)cc3)CC4)cn2)CC1 [I-175] | 0.16 | < 10 | – |
| COc1cc(N2CCN(S(=O)(=O)N(C)C)CC2)ccc1Nc1ncc2c(n1)-c1c(nn(C)c1-c1ccc(-c3cnn(C)c3)cc1)CC2 [I-176] | 2 | < 10 | < 10 |
| Cn1cc(-c2ccc(-c3c4c(nn3C)CCc3cnc(Nc5cnn(C6CCN(S(C)(=O)=O)CC6)c5)nc3-4)cc2)cn1 [I-177] | 0.23 | < 10 | – |
| CN(C)S(=O)(=O)N1CCC(n2cc(Nc3ncc4c(n3)-c3c(nn(C)c3-c3ccc(-c5cnn(C)c5)cc3)CC4)cn2)CC1 [I-178] | 0.34 | < 10 | – |
| CC(=O)N1CCC(n2cc(Nc3ncc4c(n3)-c3c(nn(C)c3-c3ccc(-c5cnn(C)c5)nc3)CC4)cn2)CC1 [I-180] | 2 | 10 to 100 | 100 to 600 |
